Reference: the supplement of paper PMC12076712
± gives the standard deviation of the averaged measurements.

Legend:
Experiment in all cases: pIC50, kinobeads binding competition
Conditions in all cases: cell material: Jurkat lysate
UniProt P19525 = biological target: UniProt P19525
MAPK11 = MAPK11 (UniProt Q15759)
SYK = SYK (UniProt P43405)
TEC = biological target: T1, TEC (UniProt P42680)
T1 sequence (whole entry): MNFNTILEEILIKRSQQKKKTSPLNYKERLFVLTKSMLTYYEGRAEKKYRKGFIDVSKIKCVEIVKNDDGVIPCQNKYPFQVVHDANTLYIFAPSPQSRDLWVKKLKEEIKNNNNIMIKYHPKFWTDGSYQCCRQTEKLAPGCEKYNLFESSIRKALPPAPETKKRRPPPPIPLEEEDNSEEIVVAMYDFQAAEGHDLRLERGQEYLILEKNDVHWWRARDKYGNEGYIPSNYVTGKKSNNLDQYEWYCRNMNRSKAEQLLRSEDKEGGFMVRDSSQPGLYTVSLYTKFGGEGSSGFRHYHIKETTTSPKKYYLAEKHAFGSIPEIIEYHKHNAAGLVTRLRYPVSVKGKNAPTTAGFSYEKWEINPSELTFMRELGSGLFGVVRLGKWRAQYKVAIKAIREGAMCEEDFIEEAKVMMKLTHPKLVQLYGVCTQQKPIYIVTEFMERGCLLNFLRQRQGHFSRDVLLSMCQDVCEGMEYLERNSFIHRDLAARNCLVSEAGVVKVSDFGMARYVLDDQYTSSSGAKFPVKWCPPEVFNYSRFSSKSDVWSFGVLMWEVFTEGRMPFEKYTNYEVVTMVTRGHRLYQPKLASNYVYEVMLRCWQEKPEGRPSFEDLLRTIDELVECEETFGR

FGR = FGR (UniProt P09769)
FGR, sequence (P09769 whole entry, looked up): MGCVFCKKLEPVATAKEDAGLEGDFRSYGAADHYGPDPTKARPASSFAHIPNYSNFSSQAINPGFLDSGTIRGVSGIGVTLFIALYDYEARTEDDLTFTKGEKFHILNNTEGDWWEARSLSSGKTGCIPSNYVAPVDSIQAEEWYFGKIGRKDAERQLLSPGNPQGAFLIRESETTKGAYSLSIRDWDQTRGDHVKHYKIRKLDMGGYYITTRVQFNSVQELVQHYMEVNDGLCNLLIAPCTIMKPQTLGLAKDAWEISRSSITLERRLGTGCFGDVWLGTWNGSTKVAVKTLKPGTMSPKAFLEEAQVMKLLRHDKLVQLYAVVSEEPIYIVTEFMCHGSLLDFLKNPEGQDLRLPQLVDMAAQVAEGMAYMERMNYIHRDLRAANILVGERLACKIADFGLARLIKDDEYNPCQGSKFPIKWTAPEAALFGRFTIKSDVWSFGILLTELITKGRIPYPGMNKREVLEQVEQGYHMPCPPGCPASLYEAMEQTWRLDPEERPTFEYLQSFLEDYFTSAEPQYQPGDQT

UniProt O15111 = biological target: T2, UniProt O15111
T2 sequence (whole entry): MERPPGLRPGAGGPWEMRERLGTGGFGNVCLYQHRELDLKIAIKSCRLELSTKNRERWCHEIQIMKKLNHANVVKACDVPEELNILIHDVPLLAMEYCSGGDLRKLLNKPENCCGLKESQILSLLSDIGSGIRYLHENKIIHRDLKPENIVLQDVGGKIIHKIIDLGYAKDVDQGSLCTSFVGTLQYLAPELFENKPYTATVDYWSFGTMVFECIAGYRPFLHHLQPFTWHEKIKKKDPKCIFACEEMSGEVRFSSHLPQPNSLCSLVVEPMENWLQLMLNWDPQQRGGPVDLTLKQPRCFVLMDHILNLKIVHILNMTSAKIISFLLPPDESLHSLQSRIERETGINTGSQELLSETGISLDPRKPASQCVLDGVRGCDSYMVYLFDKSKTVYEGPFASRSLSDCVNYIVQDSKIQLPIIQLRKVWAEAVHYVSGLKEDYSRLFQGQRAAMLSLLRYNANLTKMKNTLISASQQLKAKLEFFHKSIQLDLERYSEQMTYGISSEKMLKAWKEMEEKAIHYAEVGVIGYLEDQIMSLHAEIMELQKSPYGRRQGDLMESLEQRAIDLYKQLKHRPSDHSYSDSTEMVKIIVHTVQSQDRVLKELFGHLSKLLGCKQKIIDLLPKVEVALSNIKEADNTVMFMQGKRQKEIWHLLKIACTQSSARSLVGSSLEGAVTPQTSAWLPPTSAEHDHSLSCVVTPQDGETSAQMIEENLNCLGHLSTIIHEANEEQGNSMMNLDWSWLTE

UniProt Q8NEB9 = biological target: UniProt Q8NEB9
UniProt Q8NEB9, sequence (Q8NEB9 whole entry): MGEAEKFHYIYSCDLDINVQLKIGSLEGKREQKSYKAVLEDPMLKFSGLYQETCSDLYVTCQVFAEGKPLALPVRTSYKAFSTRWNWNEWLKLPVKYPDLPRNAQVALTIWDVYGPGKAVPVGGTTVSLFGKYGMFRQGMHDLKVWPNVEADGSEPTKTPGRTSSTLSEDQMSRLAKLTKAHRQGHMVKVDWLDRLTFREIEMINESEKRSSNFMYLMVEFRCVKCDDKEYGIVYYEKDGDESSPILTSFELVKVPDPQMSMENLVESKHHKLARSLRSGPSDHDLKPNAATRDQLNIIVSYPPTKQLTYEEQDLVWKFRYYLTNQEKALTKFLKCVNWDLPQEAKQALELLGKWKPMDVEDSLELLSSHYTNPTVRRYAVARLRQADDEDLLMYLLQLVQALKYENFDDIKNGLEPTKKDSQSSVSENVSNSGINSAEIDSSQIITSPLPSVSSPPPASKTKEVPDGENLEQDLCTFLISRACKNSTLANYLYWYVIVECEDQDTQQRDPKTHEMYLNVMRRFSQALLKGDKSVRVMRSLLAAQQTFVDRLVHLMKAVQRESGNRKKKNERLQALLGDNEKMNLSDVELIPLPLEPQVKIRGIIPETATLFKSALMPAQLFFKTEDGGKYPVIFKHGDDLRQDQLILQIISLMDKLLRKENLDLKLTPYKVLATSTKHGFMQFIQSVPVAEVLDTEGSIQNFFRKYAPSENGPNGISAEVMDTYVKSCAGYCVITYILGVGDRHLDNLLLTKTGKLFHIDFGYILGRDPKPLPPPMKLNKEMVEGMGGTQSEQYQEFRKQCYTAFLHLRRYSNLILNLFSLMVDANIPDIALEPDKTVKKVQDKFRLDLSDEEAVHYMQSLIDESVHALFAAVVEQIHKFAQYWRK

STK35 = STK35 (UniProt Q8TDR2)
STK35, sequence (Q8TDR2 whole entry): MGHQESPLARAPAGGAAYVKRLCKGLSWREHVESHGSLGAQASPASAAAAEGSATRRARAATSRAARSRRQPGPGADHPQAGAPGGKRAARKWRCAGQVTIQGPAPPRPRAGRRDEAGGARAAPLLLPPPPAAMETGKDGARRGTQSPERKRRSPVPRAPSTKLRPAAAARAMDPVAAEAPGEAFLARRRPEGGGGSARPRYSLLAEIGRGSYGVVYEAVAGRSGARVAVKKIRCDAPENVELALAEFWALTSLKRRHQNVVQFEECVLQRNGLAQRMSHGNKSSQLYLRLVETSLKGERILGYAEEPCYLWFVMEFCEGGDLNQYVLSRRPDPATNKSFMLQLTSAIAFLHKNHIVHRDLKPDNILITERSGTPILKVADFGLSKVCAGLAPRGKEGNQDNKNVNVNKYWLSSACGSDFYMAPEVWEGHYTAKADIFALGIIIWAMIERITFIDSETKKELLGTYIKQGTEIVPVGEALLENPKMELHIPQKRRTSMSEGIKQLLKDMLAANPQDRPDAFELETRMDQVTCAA

TESK2 = TESK2 (UniProt Q96S53)
TESK2, sequence (Q96S53 whole entry, looked up): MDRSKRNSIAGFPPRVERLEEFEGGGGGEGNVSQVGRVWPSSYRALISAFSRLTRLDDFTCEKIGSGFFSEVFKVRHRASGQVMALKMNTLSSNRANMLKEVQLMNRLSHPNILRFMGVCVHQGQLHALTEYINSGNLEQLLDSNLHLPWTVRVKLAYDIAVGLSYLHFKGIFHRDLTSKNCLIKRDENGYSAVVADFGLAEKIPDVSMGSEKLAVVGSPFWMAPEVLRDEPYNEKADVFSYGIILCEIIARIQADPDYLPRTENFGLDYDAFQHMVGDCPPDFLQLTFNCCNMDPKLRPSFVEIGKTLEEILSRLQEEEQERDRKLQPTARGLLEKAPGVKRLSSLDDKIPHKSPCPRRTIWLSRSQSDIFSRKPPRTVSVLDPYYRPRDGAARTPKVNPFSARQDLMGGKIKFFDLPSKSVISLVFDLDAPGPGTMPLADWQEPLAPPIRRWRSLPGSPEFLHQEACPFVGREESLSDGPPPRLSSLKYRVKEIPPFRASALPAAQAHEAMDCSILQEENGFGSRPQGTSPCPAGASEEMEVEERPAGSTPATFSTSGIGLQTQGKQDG

CAMKK2 = CAMKK2 (UniProt Q96RR4)
MAP4K5 = MAP4K5 (UniProt Q9Y4K4)
MAP4K5, sequence (Q9Y4K4 whole entry, looked up): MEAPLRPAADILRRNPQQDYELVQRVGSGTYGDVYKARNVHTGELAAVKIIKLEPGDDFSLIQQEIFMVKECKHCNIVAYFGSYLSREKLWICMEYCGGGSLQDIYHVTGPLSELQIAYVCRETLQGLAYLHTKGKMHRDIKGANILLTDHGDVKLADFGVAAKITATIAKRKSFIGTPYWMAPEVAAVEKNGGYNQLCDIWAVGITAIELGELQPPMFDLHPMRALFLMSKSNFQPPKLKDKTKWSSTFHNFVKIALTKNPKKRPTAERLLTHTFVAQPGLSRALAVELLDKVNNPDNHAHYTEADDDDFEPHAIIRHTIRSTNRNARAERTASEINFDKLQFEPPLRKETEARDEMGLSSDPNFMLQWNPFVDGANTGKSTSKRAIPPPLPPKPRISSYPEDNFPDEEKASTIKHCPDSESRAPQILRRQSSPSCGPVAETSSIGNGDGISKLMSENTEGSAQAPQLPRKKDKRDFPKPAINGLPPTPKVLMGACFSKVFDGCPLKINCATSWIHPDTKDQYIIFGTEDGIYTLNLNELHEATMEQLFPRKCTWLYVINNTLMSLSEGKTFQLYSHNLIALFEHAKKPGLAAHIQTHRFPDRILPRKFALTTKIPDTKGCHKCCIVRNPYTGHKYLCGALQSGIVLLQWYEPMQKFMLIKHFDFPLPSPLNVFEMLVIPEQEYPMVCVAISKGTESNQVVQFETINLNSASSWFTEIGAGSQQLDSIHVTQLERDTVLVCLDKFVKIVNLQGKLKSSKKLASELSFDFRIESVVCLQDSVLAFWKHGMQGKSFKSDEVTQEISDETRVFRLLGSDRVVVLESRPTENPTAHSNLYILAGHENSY

AKT2 = AKT2 (UniProt P31751)
RIPK3 = RIPK3 (UniProt Q9Y572)
RIPK3, sequence (Q9Y572 whole entry, looked up): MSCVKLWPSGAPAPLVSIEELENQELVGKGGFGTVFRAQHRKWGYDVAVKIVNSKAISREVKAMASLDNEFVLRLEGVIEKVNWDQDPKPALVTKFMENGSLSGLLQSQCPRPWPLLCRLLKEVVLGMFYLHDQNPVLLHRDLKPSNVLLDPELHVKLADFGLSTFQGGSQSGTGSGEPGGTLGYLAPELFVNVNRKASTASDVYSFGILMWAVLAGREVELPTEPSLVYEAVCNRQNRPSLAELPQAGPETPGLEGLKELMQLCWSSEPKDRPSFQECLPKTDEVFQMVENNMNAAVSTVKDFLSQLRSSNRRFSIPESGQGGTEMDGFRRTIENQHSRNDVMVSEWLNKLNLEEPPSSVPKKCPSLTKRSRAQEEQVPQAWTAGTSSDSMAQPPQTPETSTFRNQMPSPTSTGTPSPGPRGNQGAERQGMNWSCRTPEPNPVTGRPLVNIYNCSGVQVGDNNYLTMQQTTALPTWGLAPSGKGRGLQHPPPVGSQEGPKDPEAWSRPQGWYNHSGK

PRKACB = PRKACB (UniProt P22694)
BMPR2 = biological target: T3, BMPR2 (UniProt Q13873)
T3 sequence (whole entry): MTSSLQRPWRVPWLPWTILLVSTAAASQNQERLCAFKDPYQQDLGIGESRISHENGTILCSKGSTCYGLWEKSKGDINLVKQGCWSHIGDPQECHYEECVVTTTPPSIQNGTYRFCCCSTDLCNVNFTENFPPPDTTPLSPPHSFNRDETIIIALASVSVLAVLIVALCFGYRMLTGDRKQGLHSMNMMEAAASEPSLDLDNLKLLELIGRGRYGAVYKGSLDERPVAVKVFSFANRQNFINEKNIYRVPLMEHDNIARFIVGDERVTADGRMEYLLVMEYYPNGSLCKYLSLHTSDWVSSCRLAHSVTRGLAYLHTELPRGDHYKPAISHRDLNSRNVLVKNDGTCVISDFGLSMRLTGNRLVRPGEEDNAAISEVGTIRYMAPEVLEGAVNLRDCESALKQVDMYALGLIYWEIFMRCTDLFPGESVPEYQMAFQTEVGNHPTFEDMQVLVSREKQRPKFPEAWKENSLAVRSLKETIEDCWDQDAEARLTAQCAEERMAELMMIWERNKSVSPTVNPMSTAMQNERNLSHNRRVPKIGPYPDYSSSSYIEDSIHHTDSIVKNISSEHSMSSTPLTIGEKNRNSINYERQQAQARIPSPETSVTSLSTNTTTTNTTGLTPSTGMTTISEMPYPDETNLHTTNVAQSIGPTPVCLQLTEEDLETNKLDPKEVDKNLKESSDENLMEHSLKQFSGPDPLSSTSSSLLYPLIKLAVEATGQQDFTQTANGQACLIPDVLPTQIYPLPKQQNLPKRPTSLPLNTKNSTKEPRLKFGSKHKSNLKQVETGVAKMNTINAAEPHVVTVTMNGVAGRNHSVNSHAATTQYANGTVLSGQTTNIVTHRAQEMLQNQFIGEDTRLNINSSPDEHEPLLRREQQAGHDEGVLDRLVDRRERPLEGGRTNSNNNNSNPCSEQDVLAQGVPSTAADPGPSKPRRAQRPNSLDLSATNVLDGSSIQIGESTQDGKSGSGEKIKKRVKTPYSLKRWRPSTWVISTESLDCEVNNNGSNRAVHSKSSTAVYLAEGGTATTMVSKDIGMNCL

UniProt P19525, sequence (P19525 whole entry): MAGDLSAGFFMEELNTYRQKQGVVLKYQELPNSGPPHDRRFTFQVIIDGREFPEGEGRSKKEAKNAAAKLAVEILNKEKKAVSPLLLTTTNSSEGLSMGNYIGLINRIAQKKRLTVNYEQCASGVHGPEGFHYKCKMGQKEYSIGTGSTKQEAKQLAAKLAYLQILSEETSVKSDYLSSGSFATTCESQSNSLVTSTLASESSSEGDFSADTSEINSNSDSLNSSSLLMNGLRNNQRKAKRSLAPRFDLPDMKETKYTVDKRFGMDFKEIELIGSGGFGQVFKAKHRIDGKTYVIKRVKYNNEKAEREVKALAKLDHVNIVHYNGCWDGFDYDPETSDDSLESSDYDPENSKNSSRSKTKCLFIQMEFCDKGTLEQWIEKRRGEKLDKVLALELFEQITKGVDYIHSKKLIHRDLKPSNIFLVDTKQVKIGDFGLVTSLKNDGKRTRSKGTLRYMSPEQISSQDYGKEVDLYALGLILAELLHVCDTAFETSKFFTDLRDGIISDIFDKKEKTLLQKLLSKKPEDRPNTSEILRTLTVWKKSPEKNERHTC
MAPK11, sequence (Q15759 whole entry): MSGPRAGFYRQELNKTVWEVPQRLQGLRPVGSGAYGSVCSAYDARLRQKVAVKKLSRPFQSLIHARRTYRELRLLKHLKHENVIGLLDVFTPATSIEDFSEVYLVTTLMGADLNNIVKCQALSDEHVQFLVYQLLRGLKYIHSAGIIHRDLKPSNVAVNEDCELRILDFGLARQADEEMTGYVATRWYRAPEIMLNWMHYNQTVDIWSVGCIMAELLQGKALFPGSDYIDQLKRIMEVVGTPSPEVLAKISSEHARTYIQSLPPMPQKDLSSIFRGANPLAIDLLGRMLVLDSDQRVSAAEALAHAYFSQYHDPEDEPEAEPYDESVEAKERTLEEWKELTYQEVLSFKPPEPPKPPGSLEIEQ

Question: Which results are given for `CCc1cnn2c(NCc3ccc[n+]([O-])c3)cc(N3CCCC[C@H]3CCO)nc12` [dinaciclib]?
Answer: pIC50 (UniProt P19525): < 4.52; pIC50 (MAPK11): < 4.52; pIC50 (SYK): < 4.52; pIC50 (TEC): < 4.52; pIC50 (FGR): < 4.52; pIC50 (UniProt O15111): < 4.52; pIC50 (UniProt Q8NEB9): < 4.52; pIC50 (STK35): < 4.52; pIC50 (TESK2): < 4.52; pIC50 (CAMKK2): 5.245 ± 0.035; pIC50 (MAP4K5): < 4.52; pIC50 (AKT2): < 4.52; pIC50 (RIPK3): < 4.52; pIC50 (PRKACB): < 4.52; pIC50 (BMPR2): < 4.52
